Test results: patent US20220175781A1, “CD40L COMPOSITIONS AND METHODS FOR TUNABLE REGULATION” (Obsidian Therapeutics, Inc., priority 2019, published 2022)
Read-outs that look alike come from different tables or passages of the source.

Assays:
[1] = test system: Jurkat cells; conditions: Jurkat cells expressing OT-001662; for Off kinetics (CD40L surface expression, FACS): induced with TMP 50 μM
Method: Kinetics were tested using stably transduced Jurkat cells expressing OT-001662. To study the kinetics of turning on the expression of CD40L, cells were treated with TMP (5 or 50 μM) and fixed for FACS after: 0, 3, 6, 9, 24, 48 hours. At the end of the experiment all fixed were stained and analyzed via FACS in parallel. To study the kinetics of turning off expression, expression was first induced in Jurkat cells with 50 μM TMP. The cells were then washed to remove TMP and fixed after 0, 3, 6, 9, 24 hours, stained and analyzed via FACS in parallel.

[2] = test system: T cells (CD4 and CD8); test: Cleavage resistant CD40L expression and TMP regulation in T cells; assay type: cell-based
Method: T cells were transduced with OT-001668 and on day 4, the percentage of CD40L expressing T cells (within the both CD4 and CD8) subpopulations was calculated.
T cells were transduced with ecDHFR regulated construct OT-001671 that include a CD40L protein that was resistant to cleavage. On day 4 cells were treated with 10 μM TMP for 24 hours. […] In an independent experiment, T cells transduced with varying volumes of virus corresponding to OT-001671 were treated with increasing doses of TMP for 24 hours. In Table 41, 0.5 μL, 2 μL, and 10 μL indicate the different volumes of virus that were used.

[3] = test system: Jurkat cells; test: Linker length, ER regulated CD40L, % CD40L positive Jurkat cells; assay type: cell-based
Method: Jurkat cells were lentivirally transduced and 24 hours after transduction were treated with DMSO or 1 μM Bazedoxifene for another 24 hours and analyzed by flow cytometry for surface expression of CD40L. […] In Table 33, SR indicates stabilization ratio.

COc1cc(Cc2cnc(N)nc2N)cc(OC)c1OC [TMP]
On kinetics (CD40L surface expression, FACS) ([1]; TMP 5 μM, 0 hours): 743
On kinetics (CD40L surface expression, FACS) ([1]; TMP 5 μM, 3 hours): 886
On kinetics (CD40L surface expression, FACS) ([1]; TMP 5 μM, 6 hours): 1096
On kinetics (CD40L surface expression, FACS) ([1]; TMP 5 μM, 9 hours): 1392
On kinetics (CD40L surface expression, FACS) ([1]; TMP 5 μM, 24 hours): 2435
On kinetics (CD40L surface expression, FACS) ([1]; TMP 50 μM, 0 hours): 743
On kinetics (CD40L surface expression, FACS) ([1]; TMP 50 μM, 3 hours): 890
On kinetics (CD40L surface expression, FACS) ([1]; TMP 50 μM, 6 hours): 1180
On kinetics (CD40L surface expression, FACS) ([1]; TMP 50 μM, 9 hours): 1466
On kinetics (CD40L surface expression, FACS) ([1]; TMP 50 μM, 24 hours): 3952
Off kinetics (CD40L surface expression, FACS) ([1]; 0 hours after wash): 3952
Off kinetics (CD40L surface expression, FACS) ([1]; 3 hours after wash): 1631
Off kinetics (CD40L surface expression, FACS) ([1]; 6 hours after wash): 1620
Off kinetics (CD40L surface expression, FACS) ([1]; 9 hours after wash): 1037
Off kinetics (CD40L surface expression, FACS) ([1]; 24 hours after wash): 1287
TMP dose response (percentage of CD40L positive cells) ([2]; CD4+, 0.5 μL virus OT-001671, TMP 0.001 μM): 17.9%
TMP dose response (percentage of CD40L positive cells) ([2]; CD4+, 0.5 μL virus OT-001671, TMP 0.01 μM): 18.8%
TMP dose response (percentage of CD40L positive cells) ([2]; CD4+, 0.5 μL virus OT-001671, TMP 0.1 μM): 20.4%
TMP dose response (percentage of CD40L positive cells) ([2]; CD4+, 0.5 μL virus OT-001671, TMP 1 μM): 20.3%
TMP dose response (percentage of CD40L positive cells) ([2]; CD4+, 0.5 μL virus OT-001671, TMP 10 μM): 27.5%
TMP dose response (percentage of CD40L positive cells) ([2]; CD4+, 2 μL virus OT-001671, TMP 0.001 μM): 11.8%
TMP dose response (percentage of CD40L positive cells) ([2]; CD4+, 2 μL virus OT-001671, TMP 0.01 μM): 12.2%
TMP dose response (percentage of CD40L positive cells) ([2]; CD4+, 2 μL virus OT-001671, TMP 0.1 μM): 14.9%
TMP dose response (percentage of CD40L positive cells) ([2]; CD4+, 2 μL virus OT-001671, TMP 1 μM): 17.6%
TMP dose response (percentage of CD40L positive cells) ([2]; CD4+, 2 μL virus OT-001671, TMP 10 μM): 30%
TMP dose response (percentage of CD40L positive cells) ([2]; CD4+, 10 μL virus OT-001671, TMP 0.001 μM): 4.74%
TMP dose response (percentage of CD40L positive cells) ([2]; CD4+, 10 μL virus OT-001671, TMP 0.01 μM): 6.79%
TMP dose response (percentage of CD40L positive cells) ([2]; CD4+, 10 μL virus OT-001671, TMP 0.1 μM): 7.65%
TMP dose response (percentage of CD40L positive cells) ([2]; CD4+, 10 μL virus OT-001671, TMP 1 μM): 17.2%
TMP dose response (percentage of CD40L positive cells) ([2]; CD4+, 10 μL virus OT-001671, TMP 10 μM): 43.7%
TMP dose response (percentage of CD40L positive cells) ([2]; CD8+, 0.5 μL virus OT-001671, TMP 0.001 μM): 0.59%
TMP dose response (percentage of CD40L positive cells) ([2]; CD8+, 0.5 μL virus OT-001671, TMP 0.01 μM): 0.56%
TMP dose response (percentage of CD40L positive cells) ([2]; CD8+, 0.5 μL virus OT-001671, TMP 0.1 μM): 0.45%
TMP dose response (percentage of CD40L positive cells) ([2]; CD8+, 0.5 μL virus OT-001671, TMP 1 μM): 0.43%
TMP dose response (percentage of CD40L positive cells) ([2]; CD8+, 0.5 μL virus OT-001671, TMP 10 μM): 2.44%
TMP dose response (percentage of CD40L positive cells) ([2]; CD8+, 2 μL virus OT-001671, TMP 0.001 μM): 0.6%
TMP dose response (percentage of CD40L positive cells) ([2]; CD8+, 2 μL virus OT-001671, TMP 0.01 μM): 0.59%
TMP dose response (percentage of CD40L positive cells) ([2]; CD8+, 2 μL virus OT-001671, TMP 0.1 μM): 0.88%
TMP dose response (percentage of CD40L positive cells) ([2]; CD8+, 2 μL virus OT-001671, TMP 1 μM): 1.29%
TMP dose response (percentage of CD40L positive cells) ([2]; CD8+, 2 μL virus OT-001671, TMP 10 μM): 5.57%
TMP dose response (percentage of CD40L positive cells) ([2]; CD8+, 10 μL virus OT-001671, TMP 0.001 μM): 1.18%
TMP dose response (percentage of CD40L positive cells) ([2]; CD8+, 10 μL virus OT-001671, TMP 0.01 μM): 0.89%
TMP dose response (percentage of CD40L positive cells) ([2]; CD8+, 10 μL virus OT-001671, TMP 0.1 μM): 0.95%
TMP dose response (percentage of CD40L positive cells) ([2]; CD8+, 10 μL virus OT-001671, TMP 1 μM): 2.87%
TMP dose response (percentage of CD40L positive cells) ([2]; CD8+, 10 μL virus OT-001671, TMP 10 μM): 12.4%

B1: OT-001965: ER regulated CD40L construct with varied linker length (protein)
chain: MSLALSLTADQMVSALLDAEPPILYSEYDPTRPFSEASMMGLLTNLADRELVHMINWAKRVPGFVDLTLHDQVHLLECAWMEILMIGLVWRSMEHPGKLLFAPNLLLDRDQGKCVEGGVEIFDMLLATSSRFRMMNLQGEEFVCLKSIILLNSGVYTFLSSTLKSLEEKDHIHRVLDKITDTLIHLMAKAGLTLQQQHQRLAQLLLILSHIRHMSNKRMEHLYSMKCKNVVPLSDLLLEMLDAHRLGSGMIETYNQTSPRSAATGLPISMKIFMYLLTVFLITQMIGSALFAVYLHRRLDKIEDERNLHEDFVFMKTIQRCNTGERSLSLLNCEEIKSQFEGFVKDIMLNKEETKKENSFEMQKGDQNPQIAAHVISEASSKTTSVLQWAEKGYYTMSNNLVTLENGKQLTVKRQGLYYIYAQVTFCSNREASSQAPFIASLCLKSPGRFERILLRAANTHSSAKPCGQQSIHLGGVFELQPGASVFVNVTDPSQVSHGTGFTSFGLLKL
Percent of Jurkat cells expressing CD40L ([3]; 1 μM Bazedoxifene): 27%
SR ([3]; 1 μM Bazedoxifene versus DMSO, % CD40L positive Jurkat cells): 9
Percent of Jurkat cells expressing CD40L ([3]; DMSO): 3%
